According to article PMC11503492, “Activity-Based DNA-Encoded Library Screening for Selective Inhibitors of Eukaryotic Translation” (ACS Central Science, 2024):

Columns and labels:
Format in all cases: biochemical, wheat germ
[1] = system: PCSK9-FS[1:33]-GFP translation; assay: WG IVTT microplate activity assay, PCSK9-FS[1:33]-GFP frameshift counter template; settings: for IC50: PCSK9-FS[1:33]-GFP template, triplicate, undetectable IC50 marked >300; for activity on PCSK9-FS[1:33]-GFP translation (in words): frameshift control
Description: A commercially available wheat germ lysate (WG) IVTT system was employed to assay translation inhibition. Translation activity was detected via a GFP reporter, and the assay was miniaturized to picoliter-scale microfluidic droplets (Figure 1A,B). […] PCSK9 and RPL27 were truncated to the first 33 and 32 amino acids, respectively (PCSK9[1:33] and RPL27[1:32]). The sequences contain distinct PF846 stall sites and were both fused to a GFP reporter. The GFP reporter and a frameshift mutant of PCSK9[1:33] (PCSK9-FS[1:33]), which mutates the nascent chain sequence while maintaining a nearly identical mRNA sequence, were included as negative controls.[13] […] Sequence sensitivity was further confirmed by an N-terminal deletion series of PCSK9[1:33]-GFP; deletion of N-terminal residues increasingly ablated PCSK9[1:33]-GFP translation sensitivity to PF846 (Figure 1D). The WG IVTT assay was miniaturized using a previously described microfluidic circuit modified for longer incubation times (Figure S1)[27] using PF846 as a positive control compound, and assay statistical quality was calculated (Z′=0.7) (Figure 1E). To confirm detection of translation inhibition from library beads, hygromycin B, a nonselective aminoglycoside translation inhibitor, was coupled to beads displaying a photocleavable linker (PC-HygB). UV irradiation releases hygromycin from the bead, allowing it to interact with the WG IVTT assay in the droplet. PC-HygB bead photocleavage supernatant inhibited PCSK9[1:33]-GFP translation both in a microplate assay and in microfluidic droplets (Figure 1F,G, S2). Assay statistical quality using PC-HygB positive control beads was similarly calculated (Z′ = 0.75, Figure 1H). […]
436 Microplate IVTT Assays
437 Wheat germ lysate IVTT plate assays were prepared as 5 µL reactions. Wheat germ lysate
438 (3 µL) was added to test compound or vehicle control (1 µL) in a 384-well black microplate
439 and the reaction was incubated (10 min, RT). Template (1 µL) was added and reaction
440 progress was immediately monitored (λex = 480 nm, λem = 530 nm, 27 °C, 2 h). Rela-
441 tive activity was calculated using the slope of fluorescence increase over time (at 15–30
442 min post reaction initiation) for compound samples relative to that of the DMSO vehicle
443 control. All microplate experiments contained 25 ng/µL plasmid, except for assays with
445 respectively. HeLa lysate IVTT plate assays were prepared as 5.5 µL reactions. […]

[2] = system: PCSK9[1:33]-GFP translation; assay: Microfluidic activity-based DEL screen in WG IVTT droplets, PCSK9[1:33]-GFP, hit k class by sequencing; settings: number of times hit structure observed on distinct beads, summed across PCSK9[1:33]-GFP screens; *** p < 0.001, NS not significant
Description: (§1) The validated PF846-inspired library was screened to discover novel translation inhibitors. DEL beads were encapsulated in microfluidic droplets of WG IVTT and irradiated with UV in flow to liberate DEL members into the droplets. The photodosed droplets were incubated and sorted based on fluorescence.[25] PCSK9[1:33]-GFP was chosen as a proof-of-concept target, and PCSK9-FS[1:33]-GFP was used as a counter screen target to identify nonselective compounds. PC-HygB were mixed with DEL beads and screened in the microfluidic device for inhibitors of translation. […] Droplet generation, bead introduction, and library and control bead hit rate were uniform during the screen (Figure 3, bottom).
(§2) Hit collection DNA tags from the PCSK9[1:33]-GFP and PCSK9-FS[1:33]-GFP screens were sequenced to deduce the structures of molecules that inhibited PCSK9[1:33]- or PCSK9-FS[1:33]-GFP translation. Hit structure k class, the number of times a given hit structure is observed on distinct beads,[31] was summed across screens and visualized as a heat map (Figure 4A). […] The combined hit sets for the two templates contained 121 unique hits with k ≥ 17 across the two screening campaigns. The most frequently observed cycle 1 starter BBs were 1 and 2, which share an 8-methylisoquinoline moiety, but differ in the vector for cycle 2 carboxylic acid connection, and 3, which contains an N-methylazaindole moiety. The most frequently identified cycle 2 tails included carboxylic acids 4–7. […] Substituted pyrazole 6 and pyridyl-benzimidazole 7 also appeared frequently with the aforementioned starters. There were 5 hits that appeared with high k class in both PCSK9[1:33]-GFP and PCSK9[1:33]-FS-GFP screening campaigns.
(§3) 319 the droplet experiment to homogenize the bead suspension. Syringes were connected to
(§4) 320 fluidic inputs with microbore Tygon tubing (0.01” x 0.03” IC × OD). Droplet generation oil
(§5) 321 (OIL1) was 1% picosurf in HFE. Spacing (OIL2) and pinning (OIL3) oils were neat HFE.
(§6) 322 Assay reagents were driven by displacement syringe pumps (Legato 100, KD Scientific,
(§7) 323 Holliston, MA) through the circuit. OIL2 and OIL3 were initially flowed (22 µL/min and
(§8) 324 12 µL/min, respectively) and hit and waste shunt tubing were clamped to backfill the
(§9) 325 circuit. Once the incubator was filled with oil, the hit and waste tubing were unclamped
(§10) 326 and back shunts were clamped. AQ1, AQ2, and OIL1 flows were initiated (960 nL/min,
(§11) 327 640 nL/min, and 1200 nL/min, respectively) and held constant during the screen. Once
(§12) 328 droplet generation equilibrated (∼10 min), the main shunt was clamped and droplets
(§13) 329 started to fill the incubator. When droplets filled the incubator and entered the sorting
(§14) 330 region, data acquisition and screening was initiated.
(§15) 331 The custom confocal LIF detection setup and LabView code were previously described.S3
(§16) 332 Briefly, photon counting PMTs (H7828, Hamamatsu, Middlesex, NJ) were used to detect
(§17) 333 droplet fluorescence emission using a custom two-channel (520 and 570 nm) confocal mi-
(§18) 334 croscope with laser excitation (488 nm, 20 mW, OBIS-488 20LS, Coherent Inc., Santa Clara,
(§19) 335 CA). A data acquisition board (DAQ, NI, USB-6341, National Instruments) was used to
(§20) 336 digitize PMT signal, which was binned into counts, and in-house LabView code was used
(§21) 337 to control acquisition and execute droplet sorting decisions. Signal was smoothed in real-
(§22) 338 time using median-filter smoothing (width = 3). Droplets were identified by the 570 nm
(§23) 339 channel signal and the maximum signal in the 520 nm channel (max = countsn-1 when
(§24) 340 countsn <countsn-1) was set as the droplet peak value. A roaming sort threshold was
(§25) 342 the 520 nm channel. The threshold was calculated as µ - 5σ, where µ andσ were the mean
(§26) 343 and standard deviation of the previous 300 droplets’ fluorescence values, respectively. Hit
(§27) 344 droplets were not included in the calculation of droplet mean and standard deviation. A […]

[3] = system: PCSK9-FS[1:33]-GFP translation; assay: Microfluidic activity-based DEL counter screen in WG IVTT droplets, PCSK9-FS[1:33]-GFP, hit k class by sequencing; settings: number of times hit structure observed on distinct beads, summed across PCSK9-FS[1:33]-GFP screens; *** p < 0.001, NS not significant
Description: as §1, §2, §3, §4, §5, §6, §7, §8, §9, §10, §11, §12, §13, §14, §15, §16, §17, §18, §19, §20, §21, §22, §23, §24, §25, §26, §27

| Compound | IC50 [1] | activity on PCSK9-FS[1:33]-GFP translation (in words) [1] | k class PCSK9 [2] | k class PCSK9-FS [3] |
| --- | --- | --- | --- | --- |
| Cc1cccc2ccnc(N(C(=O)[C@H]3CCCN(C(=O)c4cccc5c(C#N)c[nH]c45)C3)[C@@H]3CCCNC3)c12 [Compound 8] | > 300 µM | inactive | 47 | 0 |
| Cc1cccc2ccnc(N(C(=O)C3CCN(C(=O)c4cccc5c(C#N)c[nH]c45)CC3)[C@@H]3CCCNC3)c12 [Compound 9] | 24 ± 0.4 µM | similarly active on both templates | 28 | 18 |
